Reference: patent US11192863B2, “Antiviral compounds and methods” (Biotron Limited, priority 2003, dated 2021)
Read-outs that look alike come from different tables or passages of the source.

Tests used:
Vpu protein = Vpu protein (Human immunodeficiency virus type 1 group M subtype B, UniProt P05919); details: for Vpu Inhibition (score/# of times tested): halo of growth score between zero and six, XL1-blue E. coli with pPL-Vpu, no adenine, 37° C.
MHV (strain MHV-A59) [1] = assay: microbe, parasite or virus in culture; details: Murine coronavirus, L929, read-out: Percent reduction in Plaque number/# experiments
SARS-CoV E protein = SARS-CoV E protein (Severe acute respiratory syndrome coronavirus, UniProt P59637); type: cell-based
229E-CoV E-protein = 229E-CoV E-protein (Human coronavirus 229E, UniProt P19741); assay: Bacterial bio-assay for 229E-CoV E-protein; details: halo of growth score; E. coli expressing E protein at 37° C.
MHV (strain MHV-A59) [2] = details: L929 cells
HIV = type: cell-based; details: for At least 1x log reduction seen in p24 assay?: Table 19b, yes/no
bovine coronavirus (BCV) = assay: BCV plaque assay in MDBK cells; type: cell-based; details: Betacoronavirus 1; BCV plaques in MDBK cells
[3] = tested on: porcine respiratory coronavirus (PRCV) strain AR310; assay: PRCV plaque assay in ST cells; type: cell-based; details: Alphacoronavirus 1; PRCV plaques in ST cells
EAV (strain Bucyrus) = assay: EAV plaque reduction assay in BHK-21 cells; type: cell-based; details: Equine arteritis virus; EAV plaques in BHK-21 cells
Protocol: To determine the antiviral activity of compounds against EAV replication (strain Bucyrus; ATCC VR-796), an assay measuring reduction in the number of plaques formed in monolayers of EAV infected BHK-21 cells (ATCC CCL-10) was developed: […] Plates were subsequently incubated at 37° C. […] Plaques were counted in all wells and the percentage reduction in plaque number compared to solvent control was calculated. Measurements were performed in duplicate to quadruplicate wells.

human coronavirus OC43 = assay: microbe, parasite or virus in culture; type: cell-based; details: Betacoronavirus 1, OC43, MRC5, 120 h, MRC-5 cells, 5 days post infection
[4] = target: SARS E protein ion channel (Severe acute respiratory syndrome coronavirus, UniProt P59637); type: biochemical, SARS-CoV
[5] = tested on: SARS-CoV (Hong Kong strain); type: cell-based, SARS coronavirus; details: for Titre (% control): 48 hours; for Average TCID50 (×10^6): 48 hours post infection
[6] = Table 19a, rank among 12 compounds, 1 = highest score

For `N=C(N)NC(=O)Cc1cccc2ccccc12` [2-(1-napthyl)acetoylguanidine], the “Vpu Inhibition (score/# of times tested)” value (Vpu protein) was 1.56/2 score, the inhibition at 20 µM (MHV (strain MHV-A59) [1]) was -19% and the “SARS E protein Inhibition (score/# of times tested)” value (from here on “SARS E protein Inhibition”) (SARS-CoV E protein) was 1.50/1 score. The “229E E protein Inhibition (score)” value (229E-CoV E-protein) was 0.8 score, the “Percent reduction in Plaque number/# experiments” value (from here on “Percent reduction”) (MHV (strain MHV-A59) [2]; 1 uM) was 11/1% and the “Percent reduction” value (MHV (strain MHV-A59) [2]; 10 uM) was 02/1%.
In the case of `N=C(N)NC(=O)Cc1ccc2ccccc2c1` [2-(2-napthyl)acetoylguanidine], the “At least 1x log reduction seen in p24 assay?” value (“At least 1x log reduction seen” below) (HIV) is reported as “no”, the EC50 (bovine coronavirus (BCV)) is reported as 99 µM and the “Bacterial assay rank order” value (Vpu protein; [6]) is reported as 11. The “Bacterial assay rank order” value (Vpu protein; Table 19b) was 11, the “Vpu Bacterial score” value (Vpu protein; Table 19b) was 1.2 and the “Vpu Inhibition (score/# of times tested)” value (Vpu protein) was 1.19/2 score. The EC50 [3] was 120 µM, the “SARS E protein Inhibition” value (SARS-CoV E protein) was 0.71/1 score and the “229E E protein Inhibition (score)” value (229E-CoV E-protein) was 0.1 score. For the same molecule, the “Percent reduction” value (MHV (strain MHV-A59) [2]; 1 uM) was 23/1%, the “Percent reduction” value (MHV (strain MHV-A59) [2]; 10 uM) was 20/2% and the “Percent reduction” value (MHV (strain MHV-A59) [2]; 20 uM) was 52/1%.
In the case of `CC(C)(C)c1ccccc1/C=C/C(=O)NC(=N)N` [2-t-butylcinnamoylguanidine], the IC50 (EAV (strain Bucyrus)) is reported as 1 µM, the inhibition at 2.5 µM (human coronavirus OC43) is reported as 4% and the “Vpu Inhibition (score/# of times tested)” value (Vpu protein) is reported as 2.13/2 score. The “SARS E protein Inhibition” value (SARS-CoV E protein) was 1.86/1 score, the “229E E protein Inhibition (score)” value (229E-CoV E-protein) was 3.9 score and the “Percent reduction” value (MHV (strain MHV-A59) [2]; 1 uM) was 37/1%. The “Percent reduction” value (MHV (strain MHV-A59) [2]; 10 uM) was 98/2%.
`N=C(N)NC(=O)/C=C/c1cccc(C2=CCCCC2)c1` [3-(cyclohex-1-en-1-yl)cinnamoylguanidine] was tested, and the “Vpu Inhibition (score/# of times tested)” value (Vpu protein) was 2.5/2 score, the inhibition at 1 µM (MHV (strain MHV-A59) [1]) was -19% and the “SARS E protein Inhibition” value (SARS-CoV E protein) was 3.75/1 score. The “229E E protein Inhibition (score)” value (229E-CoV E-protein) was 2.4 score and the “Percent reduction” value (MHV (strain MHV-A59) [2]; 10 uM) was 2/2%.
`CCCCC/C=C/c1cccc(/C=C/C(=O)NC(=N)N)c1` [3-(trans-hept-1-en-1-yl)cinnamoylguanidine] was tested, and the “Vpu Inhibition (score/# of times tested)” value (Vpu protein) was 0.81/2 score, the inhibition at 1 µM (MHV (strain MHV-A59) [1]) was -6% and the inhibition at 10 µM (MHV (strain MHV-A59) [1]) was 23%. For the same molecule, the “SARS E protein Inhibition” value (SARS-CoV E protein) was 1.71/1 score.
In the case of `COc1ccc2cc(C(=O)NC(=N)N)ccc2c1` [6-methoxy-2-naphthoylguanidine], the “At least 1x log reduction seen” value (HIV) is reported as “yes”, the inhibition at 2.5 µM (human coronavirus OC43) is reported as 47% and the EC50 (bovine coronavirus (BCV)) is reported as 9 µM. The “Bacterial assay rank order” value (Vpu protein; [6]) was 5.5, the “Bacterial assay rank order” value (Vpu protein; Table 19b) was 5.5 and the “Vpu Bacterial score” value (Vpu protein; Table 19b) was 2.9. The “Vpu Inhibition (score/# of times tested)” value (Vpu protein) was 2.9/4 score, the “% Reduction of average current by 100 μM” value [4] was 92 ± 16% and the EC50 [3] was 0.04 µM. The “Titre (% control)” value ([5]; Compound Concentration 2 uM) was 118 % control, the “Average TCID50 (×10^6)” value ([5]; Compound Concentration 2 uM) was 6.35 ×10^6 and the “Titre (% control)” value ([5]; Compound Concentration 10 uM) was 111 % control. For the same molecule, the “Average TCID50 (×10^6)” value ([5]; Compound Concentration 10 uM) was 5.95 ×10^6, the “SARS E protein Inhibition” value (SARS-CoV E protein) was 3.13/3 score and the “229E E protein Inhibition (score)” value (229E-CoV E-protein) was 1.4 score. The “Percent reduction” value (MHV (strain MHV-A59) [2]; 1 uM) was 34/3%, the “Percent reduction” value (MHV (strain MHV-A59) [2]; 10 uM) was 56/3% and the “Percent reduction” value (MHV (strain MHV-A59) [2]; 20 uM) was 88/3%.
In the case of `N=C(N)NC(=O)/C=C/c1ccco1` [(2-Furanacryloyl)guanidine], the “Vpu Inhibition (score/# of times tested)” value (Vpu protein) is reported as 0.94/2 score, the inhibition at 1 µM (MHV (strain MHV-A59) [1]) is reported as -3% and the “SARS E protein Inhibition” value (SARS-CoV E protein) is reported as 0.82/2 score. The “Percent reduction” value (MHV (strain MHV-A59) [2]; 10 uM) was 63/2% and the “Percent reduction” value (MHV (strain MHV-A59) [2]; 20 uM) was 67/2%.
With `N=C(N)NC(=O)/C=C/c1cccc(Br)c1` [(3-Bromocinnamoyl)guanidine] the IC50 (EAV (strain Bucyrus)) was 10 µM, the “Percent of Positive Control” value (HIV; Drug Conc. 0.625 μM) was 116% and the “Percent of Positive Control” value (HIV; Drug Conc. 1.25 μM) was 59%. The “Percent of Positive Control” value (HIV; Drug Conc. 2.5 μM) was 9%, the “Percent of Positive Control” value (HIV; Drug Conc. 5 μM) was 1% and the “Percent of Positive Control” value (HIV; Drug Conc. 10 μM) was 3%. The “At least 1x log reduction seen” value (HIV) was “yes”, the inhibition at 2.5 µM (human coronavirus OC43) was 100% and the EC50 (bovine coronavirus (BCV)) was 3 µM. For the same molecule, the “Bacterial assay rank order” value (Vpu protein; [6]) was 1, the “Bacterial assay rank order” value (Vpu protein; Table 19b) was 1 and the “Vpu Bacterial score” value (Vpu protein; Table 19b) was 4.3. For the same molecule, the “Vpu Inhibition (score/# of times tested)” value (Vpu protein) was 4.3/24 score, the “% Reduction of average current by 100 μM” value [4] was 87 ± 11% and the EC50 [3] was 11.2 µM. The “SARS E protein Inhibition” value (SARS-CoV E protein) was 3.15/27 score, the “229E E protein Inhibition (score)” value (229E-CoV E-protein) was 1.7 score and the “Percent reduction” value (MHV (strain MHV-A59) [2]; 1 uM) was 39/3%. For the same molecule, the “Percent reduction” value (MHV (strain MHV-A59) [2]; 10 uM) was 90/3% and the “Percent reduction” value (MHV (strain MHV-A59) [2]; 20 uM) was 95/2%.
With `N=C(N)NC(=O)C1CC1c1ccccc1` (stereo not drawn) [(trans-2-Phenylcyclopropanecarbonyl)guanidine] the “At least 1x log reduction seen” value (HIV) was “no”, the inhibition at 2.5 µM (human coronavirus OC43) was 71% and the EC50 (bovine coronavirus (BCV)) was 109 µM. The “Bacterial assay rank order” value (Vpu protein; [6]) was 12, the “Bacterial assay rank order” value (Vpu protein; Table 19b) was 12 and the “Vpu Bacterial score” value (Vpu protein; Table 19b) was 0.4. For the same molecule, the “Vpu Inhibition (score/# of times tested)” value (Vpu protein) was 0.4/2 score, the EC50 [3] was 17.2 µM and the “SARS E protein Inhibition” value (SARS-CoV E protein) was 1.34/3 score. For the same molecule, the “229E E protein Inhibition (score)” value (229E-CoV E-protein) was 0.8 score, the “Percent reduction” value (MHV (strain MHV-A59) [2]; 1 uM) was 31/2% and the “Percent reduction” value (MHV (strain MHV-A59) [2]; 10 uM) was 64/2%. The “Percent reduction” value (MHV (strain MHV-A59) [2]; 20 uM) was 77/2%.
With `N=C(NC(=O)CCc1ccccc1)NC(=O)CCc1ccccc1` [N,N′-Bis(3-phenylpropanoyl)guanidine, N,N-Bis(3-phenylpropanoyl)guanidine] the “Vpu Inhibition (score/# of times tested)” value (Vpu protein) was 0.1/2 score, the inhibition at 1 µM (MHV (strain MHV-A59) [1]) was -8% and the “229E E protein Inhibition (score)” value (229E-CoV E-protein) was 0.3 score. For the same molecule, the “Percent reduction” value (MHV (strain MHV-A59) [2]; 10 uM) was 30/4% and the “Percent reduction” value (MHV (strain MHV-A59) [2]; 20 uM) was 41/3%.
For `N=C(NC(=O)CCc1ccccc1)Nc1ccccc1` [N-(3-phenylpropanoyl)-N′-phenylguanidine], the “At least 1x log reduction seen” value (HIV) was “no”, the EC50 (bovine coronavirus (BCV)) was 156 µM and the “Bacterial assay rank order” value (Vpu protein; [6]) was 9. The “Bacterial assay rank order” value (Vpu protein; Table 19b) was 9, the “Vpu Bacterial score” value (Vpu protein; Table 19b) was 2.2 and the “Vpu Inhibition (score/# of times tested)” value (Vpu protein) was 2.21/3 score. For the same molecule, the EC50 [3] was 19 µM, the “SARS E protein Inhibition” value (SARS-CoV E protein) was 1.57/2 score and the “229E E protein Inhibition (score)” value (229E-CoV E-protein) was 0.1 score. The “Percent reduction” value (MHV (strain MHV-A59) [2]; 1 uM) was 43/1%, the “Percent reduction” value (MHV (strain MHV-A59) [2]; 10 uM) was 65/1% and the “Percent reduction” value (MHV (strain MHV-A59) [2]; 20 uM) was 80/1%.
In the case of `N=C(NC(=O)c1ccc2cc(O)ccc2c1)Nc1ccccc1` [N-(6-Hydroxy-2-napthoyl)-N′-phenylguanidine], the “Vpu Inhibition (score/# of times tested)” value (Vpu protein) is reported as 2.06/2 score, the inhibition at 1 µM (MHV (strain MHV-A59) [1]) is reported as -5% and the “SARS E protein Inhibition” value (SARS-CoV E protein) is reported as 1.35/3 score. The “Percent reduction” value (MHV (strain MHV-A59) [2]; 10 uM) was 39/1% and the “Percent reduction” value (MHV (strain MHV-A59) [2]; 20 uM) was 43/1%.
